Results reported in patent publication US20250195513A1, “DEGRADATION OF IRAK4 BY CONJUGATION OF IRAK4 INHIBITORS WITH E3 LIGASE LIGAND AND METHODS OF USE” (BeiGene, Ltd., priority 2022, published 2025).
Like-named read-outs stand apart in the source and are kept apart here.

Molecular target: T1, IRAK4 (Homo sapiens, UniProt Q9NWZ3)
T1 construct: endogenous in cells; host or cells: Karpas299
T1 sequence (Q9NWZ3 1-460): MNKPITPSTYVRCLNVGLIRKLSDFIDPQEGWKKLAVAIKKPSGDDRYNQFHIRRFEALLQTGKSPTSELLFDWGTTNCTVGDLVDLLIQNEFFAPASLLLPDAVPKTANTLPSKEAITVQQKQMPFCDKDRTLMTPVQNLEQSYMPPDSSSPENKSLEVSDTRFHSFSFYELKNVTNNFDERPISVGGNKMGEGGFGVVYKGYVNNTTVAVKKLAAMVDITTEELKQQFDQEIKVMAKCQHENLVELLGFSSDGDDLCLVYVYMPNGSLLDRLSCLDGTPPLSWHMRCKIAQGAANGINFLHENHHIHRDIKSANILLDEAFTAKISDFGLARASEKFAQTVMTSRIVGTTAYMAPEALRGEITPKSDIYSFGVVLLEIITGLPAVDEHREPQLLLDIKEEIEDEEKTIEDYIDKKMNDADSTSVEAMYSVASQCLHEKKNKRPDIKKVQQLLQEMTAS
Assay: IRAK4 Degradation Assay (Karpas299, HTRF/TR-FRET)
Format: cell-based
Description: IRAK4 degradation was measured using a TR-FRET-based method (Degorce, François, et al. Current chemical genomics. 2009, 3: 22). Karpas299 maintained in RPMI 1640 medium (Thermo Scientific) supplemented with 20% fetal bovine serum (FBS, Thermo Scientific), 100 units/mL penicillin and 0.1 mg/mL streptomycin (Thermo Scientific) were seeded into 96-well plates at the density of 0.2 million cells per well and then treated with a series dilution of compounds. After 24 hours or 5 hours treatment, cells were pelleted via centrifugation and 40 μL lysis buffer (Cisbio) was added to each well after removal of the supernatant. Plates were then incubated at room temperature with shaking for 30 minutes. A total of 16 μL of cell lysates from each well of a 96-well plate was transferred to a 384-well white assay plate. IRAK4 level was quantitated using the HTRF kit as described by the manufacturer manual (Cisbio). FRET signals were measured using a PHERAstar FSX reader (BMG Labtech).
After treatment, add HTRF lysis buffer to each well; seal the plate and incubate 1 hour at room temperature on a plate shaker; Once the cells are lysed, 16 μL of cell lysate are transferred to a PE 384-well HTRF detection plate; 4 μL of pre-mixed HTRF antibodies are added to each well; Cover the plate with a plate sealer, spin 1000 rpm for 1 min, Incubate overnight at room temperature; Read on BMG PheraStar with HTRF protocol (337 nm-665 nm-620 nm).
The inhibition (degradation) percentage of the compound was calculated by the following equation: […]
The IC50 (DC50) value of a compound can be obtained by fitting the following equation
Wherein, X and Y are known values, and IC50, Hillslope, Top and Bottom are the parameters obtained by fitting with software. Y is the inhibition percentage (calculated from the equation), X is the concentration of the compound; IC50 is the concentration of the compound when the […] is reached. The smaller the IC50 value is, the stronger the inhibitory ability of the compound is. Vice versa, the higher the IC50 value is, the weaker the ability the inhibitory ability of the compound is; Hillslope represents the slope of the fitted curve, generally around 1 *; Bottom represents the minimum value of the curve obtained by data fitting, which is generally 0%±20%; Top represents the maximum value of the curve obtained by data fitting, which is generally 100%±20%. The experimental data were fitted by calculating and analyzing with Dotmatics data analysis software.

[1] = Karpas-299 cells, 24 h treatment, maximum percentage of degradation, read-out: IRAK4 in Karpas-299 (24 h) Dmax (%)
[2] = Karpas-299 cells, 24 h treatment, read-out: IRAK4 in Karpas-299 (24 h) DC50
[3] = Karpas-299 cells, 5 h treatment, maximum percentage of degradation, read-out: IRAK4 in Karpas-299 (5 h) Dmax (%)
[4] = Karpas-299 cells, 5 h treatment, read-out: IRAK4 in Karpas-299 (5 h) DC50

Row | Structure (SMILES) | Dmax [1] [%] | DC50 [2] [nM] | Dmax [3] [%] | DC50 [4] [nM] | DC50 (Degradation (Karpas-299), comparison table, Linker Type A, read-out: Compound (Linker Type A) DC50) [nM] | Dmax (Degradation (Karpas-299), comparison table, Linker Type A, read-out: Compound (Linker Type A) Dmax (%)) [%]
1 | O=C1CCN(c2c(F)cc(N3CC(C(=O)N4CCN([C@H]5CC[C@H](n6cc(NC(=O)c7cnn(-c8ccnc(NCC9CC9)c8)n7)c(C(F)F)n6)CC5)CC4)C3)cc2F)C(=O)N1 [Example 61, 2-(2-((cyclopropylmethyl)amino)pyridin-4-yl)-N-(3-(difluoromethyl)-1-((1r,4r)-4-(4-(1-(4-(2,4-dioxotetrahydropyrimidin-1(2H)-yl)-3,5-difluorophenyl)azetidine-3-carbonyl)piperazin-1-yl)cyclohexyl)-1H-pyrazol-4-yl)-2H-1,2,3-triazole-4-carboxamide] | 96 | 5 | 86 | 24 | – | –
2 | COc1cc2nn([C@H]3CC[C@H](CN4CCN(C(=O)[C@H]5CC[C@H](Oc6ccc(N7CCC(=O)NC7=O)cc6)CC5)CC4)CC3)cc2cc1NC(=O)c1cccc(C(F)(F)F)n1 [Example 6, N-(2-((1R,4r)-4-((4-((1r,4R)-4-(4-(2,4-dioxotetrahydropyrimidin-1(2H)-yl)phenoxy)cyclohexane-1-carbonyl)piperazin-1-yl)methyl)cyclohexyl)-6-methoxy-2H-indazol-5-yl)-6-(trifluoromethyl)picolinamide] | 11 | > 10000 | – | – | > 10000 | 11
3 | NC(=O)c1nn(-c2ccc(N3CCN(C(=O)[C@@H]4CCN(c5cc(F)c([C@H]6CCC(=O)NC6=O)c(F)c5)C4)CC3)nc2)cc1NC(=O)c1coc(-c2ccnc(NCC(F)(F)F)c2)n1 [Example 166, N-(3-carbamoyl-1-(6-(4-((R)-1-(4-((R)-2,6-dioxopiperidin-3-yl)-3,5-difluorophenyl)pyrrolidine-3-carbonyl)piperazin-1-yl)pyridin-3-yl)-1H-pyrazol-4-yl)-2-(2-((2,2,2-trifluoroethyl)amino)pyridin-4-yl)oxazole-4-carboxamide] | 96 | 2.6 | – | – | – | –
4 | COc1cc2nn(C3CCN(C4CN(C(=O)[C@@H]5CCN(c6cc(F)c([C@H]7CCC(=O)NC7=O)c(F)c6)C5)C4)CC3)cc2cc1NC(=O)c1cccc(C(F)(F)F)n1 [Example 42, N-(2-(1-(1-((R)-1-(4-((R)-2,6-dioxopiperidin-3-yl)-3,5-difluorophenyl)pyrrolidine-3-carbonyl)azetidin-3-yl)piperidin-4-yl)-6-methoxy-2H-indazol-5-yl)-6-(trifluoromethyl)picolinamide] | 95 | 2.2 | 83 | 4.9 | – | –
5 | CC(C)(O)c1cc2nn(C3CCN(C4CCN(C(=O)C5CN(c6cc(F)c([C@H]7CCC(=O)NC7=O)c(F)c6)C5)CC4)CC3)cc2cc1NC(=O)c1cccc(C(F)(F)F)n1 [Example 160, (R)—N-(2-(1′-(1-(4-(2,6-dioxopiperidin-3-yl)-3,5-difluorophenyl)azetidine-3-carbonyl)-[1,4′-bipiperidin]-4-yl)-6-(2-hydroxypropan-2-yl)-2H-indazol-5-yl)-6-(trifluoromethyl)picolinamide] | 99 | 0.4 | 90 | 4 | – | –
6 | CC(C)(O)c1cc2nn([C@H]3CC[C@H](N4CCN(C(=O)C5CN(c6cc(F)c([C@H]7CCC(=O)NC7=O)c(F)c6)C5)CC4)CC3)cc2cc1NC(=O)c1cccn(C2CC2)c1=O [Example 102, 1-cyclopropyl-N-(2-((1r,4r)-4-(4-(1-(4-((R)-2,6-dioxopiperidin-3-yl)-3,5-difluorophenyl)azetidine-3-carbonyl)piperazin-1-yl)cyclohexyl)-6-(2-hydroxypropan-2-yl)-2H-indazol-5-yl)-2-oxo-1,2-dihydropyridine-3-carboxamide] | 94 | 2 | 61 | 12 | – | –
7 | CC(C)(O)c1cc2nn([C@H]3CC[C@H](N4CCN(C5CCN(c6cc(F)c([C@H]7CCC(=O)NC7=O)c(F)c6)CC5)CC4)CC3)cc2cc1NC(=O)c1cccc(C(F)(F)F)n1 [Example 99, N-(2-((1r,4r)-4-(4-(1-(4-((R)-2,6-dioxopiperidin-3-yl)-3,5-difluorophenyl)piperidin-4-yl)piperazin-1-yl)cyclohexyl)-6-(2-hydroxypropan-2-yl)-2H-indazol-5-yl)-6-(trifluoromethyl)picolinamide] | 99 | 0.4 | – | – | – | –

The remaining compounds from weak to strong by DC50 [2], led by results:

Row | Dmax [1] [%] | DC50 [2] [nM] | Dmax [3] [%] | DC50 [4] [nM] | DC50 (Degradation (Karpas-299), comparison table, Linker Type A, read-out: Compound (Linker Type A) DC50) [nM] | Dmax (Degradation (Karpas-299), comparison table, Linker Type A, read-out: Compound (Linker Type A) Dmax (%)) [%] | Structure (SMILES)
8 | 99 | 9.3 | – | – | – | – | COc1cc2nn(C3CCN(C4CCN(C(=O)C5CN(c6ccc(N7CCC(=O)NC7=O)cc6)C5)CC4)CC3)cc2cc1NC(=O)c1cccc(C(F)(F)F)n1 [Example 44, N-(2-(1′-(1-(4-(2,4-dioxotetrahydropyrimidin-1(2H)-yl)phenyl)azetidine-3-carbonyl)-[1,4′-bipiperidin]-4-yl)-6-methoxy-2H-indazol-5-yl)-6-(trifluoromethyl)picolinamide]
9 | 95 | 7.7 | – | – | – | – | COc1cc2nn(C3CCN(C4CCN(C(=O)[C@@H]5CCN(c6cc(F)c([C@H]7CCC(=O)NC7=O)c(F)c6)C5)CC4)CC3)cc2cc1NC(=O)c1cccc(C(F)(F)F)n1 [Example 43, N-(2-(1′-((R)-1-(4-((R)-2,6-dioxopiperidin-3-yl)-3,5-difluorophenyl)pyrrolidine-3-carbonyl)-[1,4′-bipiperidin]-4-yl)-6-methoxy-2H-indazol-5-yl)-6-(trifluoromethyl)picolinamide]
10 | 96 | 6.9 | 76 | 162 | – | – | O=C1CC[C@H](c2c(F)cc(N3CC(C(=O)N4CCN(c5ccc(-n6cc(NC(=O)c7coc(-c8ccnc(NCC(F)(F)F)c8)n7)c(C(F)F)n6)cn5)CC4)C3)cc2F)C(=O)N1 [Example 29]
11 | 97 | 4.8 | – | – | – | – | O=C1CC[C@H](c2c(F)cc(N3CCC(CN4CCN([C@H]5CC[C@H](n6cc(NC(=O)c7coc(-c8ccnc(NCC(F)(F)F)c8)n7)c(C(F)F)n6)CC5)CC4)CC3)cc2F)C(=O)N1 [Example 20, N-(3-(difluoromethyl)-1-((1r,4r)-4-(4-((1-(4-((R)-2,6-dioxopiperidin-3-yl)-3,5-difluorophenyl)piperidin-4-yl)methyl)piperazin-1-yl)cyclohexyl)-1H-pyrazol-4-yl)-2-(2-((2,2,2-trifluoroethyl)amino)pyridin-4-yl)oxazole-4-carboxamide]
12 | 98 | 4.4 | – | – | – | – | O=C1CCN(c2ccc(N3CCC(N4CCN([C@H]5CC[C@H](n6cc(NC(=O)c7coc(-c8ccnc(NCC(F)(F)F)c8)n7)c(C(F)F)n6)CC5)CC4)C3)cc2)C(=O)N1 (stereo partly shown) [Example 21, N-(3-(difluoromethyl)-1-((1r,4r)-4-(4-(1-(4-(2,4-dioxotetrahydropyrimidin-1(2H)-yl)phenyl)pyrrolidin-3-yl)piperazin-1-yl)cyclohexyl)-1H-pyrazol-4-yl)-2-(2-((2,2,2-trifluoroethyl)amino)pyridin-4-yl)oxazole-4-carboxamide]
13 | 90 | 4.4 | – | – | – | – | CC(C)(O)c1cc2nn([C@H]3CC[C@H](N4CCN(C(=O)[C@@H]5CCN(c6cc(F)c([C@H]7CCC(=O)NC7=O)c(F)c6)C5)CC4)CC3)cc2cc1NC(=O)c1cccn(C2CC2)c1=O [Example 103, 1-cyclopropyl-N-(2-((1R,4r)-4-(4-((R)-1-(4-((R)-2,6-dioxopiperidin-3-yl)-3,5-difluorophenyl)pyrrolidine-3-carbonyl)piperazin-1-yl)cyclohexyl)-6-(2-hydroxypropan-2-yl)-2H-indazol-5-yl)-2-oxo-1,2-dihydropyridine-3-carboxamide]
14 | 96 | 3.1 | – | – | – | – | O=C1CC[C@H](c2c(F)cc(N3CC(C(=O)N4CCN(c5ccc(-n6cc(NC(=O)c7coc(-c8ccnc(NCC9CC9)c8)n7)c(C(F)F)n6)cn5)CC4)C3)cc2F)C(=O)N1 [Example 90]
